Assay results taken from PubChem BioAssay (NCI).
Values joined by “and” are separate entries in the source; they are usually repeats but may differ in a detail not shown here. Equal entries are not always repeated.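 How tested: cells in 96-well plates exposed to compound for 48 hours at five concentrations. GI50: concentration for 50% inhibition of growth. TGI is the concentration that stops growth completely.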 Where a SMILES comes first, the peptide text is derived from it. [ ]: non-standard residue; d: D form. The star is where a group is joined. ξ: configuration not given here. NMeY = CN[C@@H](Cc1ccc(O)cc1)C(=O)O; Cbz = O=C(OCc1ccccc1)*; ξA = CC(N)C(=O)O

Assays:
Experiment in all cases: inhibition of tumour cell growth, NCI panel, 48 h
HS 578T breast = system: HS 578T breast
PC-3 prostate = system: PC-3 prostate
NCI/ADR-RES ovarian = system: NCI/ADR-RES ovarian
SK-MEL-2 melanoma = system: SK-MEL-2 melanoma
T-47D breast = system: T-47D breast
MDA-MB-231 breast = system: MDA-MB-231 breast
CCRF-CEM leukemia = system: CCRF-CEM leukemia
SN12C renal = system: SN12C renal
BT-549 breast = system: BT-549 breast
MDA-N = system: MDA-N

Structure (SMILES) | TGI (HS 578T breast) | TGI (PC-3 prostate) | TGI (NCI/ADR-RES ovarian) | TGI (SK-MEL-2 melanoma) | TGI (T-47D breast) | TGI (MDA-MB-231 breast) | TGI (CCRF-CEM leukemia) | TGI (SN12C renal) | TGI (BT-549 breast) | TGI (MDA-N) | GI50 (HS 578T breast) | GI50 (PC-3 prostate) | GI50 (NCI/ADR-RES ovarian) | GI50 (SK-MEL-2 melanoma) | GI50 (T-47D breast) | GI50 (MDA-MB-231 breast) | GI50 (SN12C renal) | GI50 (MDA-N) | GI50 (BT-549 breast)
CCCCCCCCCCCCC(=O)NCC(=O)NC(Cc1ccccc1)C(=O)Oc1ccc([N+](=O)[O-])cc1 (stereo not given) | > 100 µM | > 100 µM | > 100 µM | > 100 µM | > 100 µM | > 100 µM | 68.7 µM | > 100 µM | > 100 µM | > 100 µM |  |  |  |  |  |  |  |  | 
O=C1/C(=C/c2ccccc2S)N=C(c2ccccc2)N1c1ccc2c(c1)Sc1cc(N3C(=O)/C(=C/c4ccccc4S)N=C3c3ccccc3)ccc1N2 | 72.4 µM | 46.9 µM | > 100 µM | 44.8 µM | 51.3 µM | 89.9 µM | 33.3 µM | 34.3 µM | 73.5 µM | 51.3 µM |  |  |  |  |  |  |  |  | 
O=C(Nc1cccc2nsnc12)c1cc2c(cc1Cl)Sc1nccn1S2(=O)=O | > 100 µM | 3.64 µM | 42.6 µM | 26.4 µM | 7.04 µM | 21.9 µM | > 36.6 µM | 31.1 µM | 36.9 µM | 34.3 µM |  |  |  |  |  |  |  |  | 
O=C(C[C@@H]1NCCC[C@H]1O)Cn1cnc2cc(Br)c(Cl)cc2c1=O | 1.36 µM | 1.4 µM | 0.603 µM | 0.05 µM | 0.082 µM | 0.285 µM | > 100 µM | 0.0726 µM | 0.259 µM | 0.0881 µM |  |  |  |  |  |  |  |  | 
COc1ccc(C[C@@H](C(=O)NCC(N)=O)N(C)C(=O)[C@@H]2CCCN2C(=O)[C@H](CC(C)C)NC(=O)C(C)NC(=O)OCc2ccccc2)cc1 (stereo not given in full) (Cbz-[ξA]LP[NMeY](Me)G-NH2) | > 100 µM | > 100 µM | > 100 µM | > 100 µM | > 100 µM | > 100 µM | > 100 µM | > 100 µM | > 100 µM | > 100 µM |  |  |  |  |  |  |  |  | 
O=C1C/C(=C\O)C(=O)c2ccccc2N1 | > 100 µM | > 100 µM | > 100 µM | > 100 µM | > 100 µM | > 100 µM | > 100 µM | > 100 µM | > 100 µM | > 100 µM |  |  |  |  |  |  |  |  | 
CN(C)c1ccc(-c2nc(-c3cc4c(ccc5ccccc54)oc3=O)cs2)cc1 | > 100 µM | > 100 µM | > 100 µM | > 100 µM | > 100 µM | > 100 µM | > 100 µM | > 100 µM | > 100 µM | > 100 µM |  |  |  |  |  |  |  |  | 
Oc1ccc2ccccc2c1-c1nnc(CCCCCCCCc2nnc(-c3c(O)ccc4ccccc34)o2)o1 | 25 µM and > 100 µM | 22.4 µM and 50.6 µM |  | 25 µM and > 100 µM | 25 µM and > 100 µM |  | > 60.3 µM |  | > 100 µM |  | 19.6 µM | 1.55 µM | 0.38 µM | 4.88 µM | 1.67 µM | 0.583 µM | 0.428 µM | 2.67 µM | 
CC(=O)N(C(C)=O)n1c(Cc2ccc(Cl)cc2)nn(C(C)=O)c1=O | > 100 µM | > 100 µM | > 100 µM | > 100 µM | > 100 µM | > 100 µM | > 100 µM | > 100 µM | > 100 µM | > 100 µM |  |  |  |  |  |  |  |  | 
CC1(C)OC[C@@H](/C=C\CCO[Si](c2ccccc2)(c2ccccc2)C(C)(C)C)N1C(=O)c1ccccc1 | 55.1 µM | > 100 µM | > 100 µM | 19.6 µM | > 100 µM | 38.4 µM | 59.7 µM | 29.9 µM | > 100 µM | > 100 µM |  |  |  |  |  |  |  |  | 
CCCCCCCCCCCCCCCCP(=O)(O)OP(=O)(O)OCC1OC(n2ccc(N)nc2=O)C(O)C1O (stereo not given) | > 100 µM | > 100 µM | > 100 µM | > 100 µM | > 100 µM | > 100 µM | > 100 µM and 21.4 µM | > 100 µM | > 100 µM | > 100 µM | 83.2 µM and 29.2 µM | 37.8 µM and 10.8 µM |  |  |  | > 100 µM and 37.9 µM | 54.5 µM and 9.05 µM | > 100 µM and 40.4 µM | > 100 µM and 24.3 µM
C/C(=N\N=C(N)N)c1c(C(=O)OCCCCCCOC(=O)c2nc3sccn3c2/C(C)=N/N=C(N)N)nc2sccn12 | > 100 µM | > 100 µM | > 100 µM | > 100 µM | 42.5 µM | > 100 µM | 63.2 µM | > 100 µM | > 100 µM | > 100 µM |  |  |  |  |  |  |  |  | 
O=C(Cc1nc2ccc(C(=O)c3ccccc3)cc2[nH]c1=O)C(=O)Nc1ccccc1[N+](=O)[O-] | > 100 µM | > 100 µM | > 100 µM | > 100 µM | > 100 µM | > 100 µM | > 100 µM | > 100 µM | > 100 µM | > 100 µM |  |  |  |  |  |  |  |  | 
[N-]=[N+]=NC1(c2ccccc2)C(=O)Nc2ccccc2C1=O (stereo not given) | 76.9 µM | > 100 µM | > 100 µM | 67.3 µM | > 100 µM | > 100 µM | > 100 µM | > 100 µM | 34.8 µM | > 100 µM |  |  |  |  |  |  |  |  | 
O=c1oc2ccccc2cc1-c1nc2ccc([N+](=O)[O-])cc2o1 | > 100 µM | > 100 µM | > 100 µM | > 100 µM | > 100 µM | > 100 µM | > 100 µM | > 100 µM | > 100 µM | > 100 µM |  |  |  |  |  |  |  |  | 
c1ccc2c(c1)CC1c3[nH]c4ccccc4c3CCN21 (stereo not given) | > 10 µM | > 10 µM | > 10 µM | > 10 µM | > 10 µM | > 10 µM | > 10 µM | > 10 µM | > 10 µM | > 10 µM |  |  |  |  |  |  |  |  | 
COc1ccc(C2CC(c3c(C)nn(-c4ccccc4)c3-c3ccc(C)cc3O)=NN2c2ccccc2)cc1 (stereo not given) | > 100 µM | > 100 µM | > 100 µM | > 52.3 µM | > 100 µM | > 100 µM | > 100 µM | > 100 µM | > 100 µM | > 100 µM |  |  |  |  |  |  |  |  | 
O=C1c2cc(Cl)ccc2-n2c(noc2=O)C2CSCN12 (stereo not given) | > 100 µM | > 100 µM | > 100 µM | > 100 µM | > 100 µM | > 100 µM | > 100 µM | > 100 µM | > 100 µM | > 100 µM |  |  |  |  |  |  |  |  | 
CCOC(=O)c1c2c(n(C)c1-c1ccccc1)C(=O)C(C)=CC2=O | 56.7 µM | 25.5 µM | 23.3 µM | 31.1 µM | > 26 µM | 4.62 µM | 7.98 µM | 24.1 µM | 27.7 µM | 4.08 µM |  |  |  |  |  |  |  |  | 
CC1CN=C(c2cccc(OCc3ccc(COc4cccc(C5=NCC(C)N5)c4)cc3)c2)N1 (stereo not given) | > 100 µM | > 100 µM | > 100 µM | 79.7 µM | > 100 µM | > 100 µM | 66.8 µM | > 100 µM | > 100 µM | > 100 µM |  |  |  |  |  |  |  |  | 
COC(=O)Cc1c(C2=Nc3ccccc3C2(O)CC(=O)OC)[nH]c2ccccc12 (stereo not given) | > 100 µM | > 100 µM | > 100 µM | > 100 µM | > 100 µM | > 100 µM | 54.5 µM | > 100 µM | > 100 µM | > 100 µM |  |  |  |  |  |  |  |  | 
COc1cc(S(=O)(=O)Nc2nc(-c3ccc(N4C(=O)/C(=C/c5ccccc5)N=C4c4ccccc4)cc3)cs2)ccc1Cl | 93.6 µM | > 100 µM | > 100 µM | 84.8 µM | > 100 µM | 70.1 µM | > 100 µM | > 100 µM | 75 µM | > 100 µM |  |  |  |  |  |  |  |  | 
CC1=NN(c2ccc(C)cc2)C2(C1)SCC(=O)N2c1nc2ccccc2s1 (stereo not given) | > 100 µM | 70.1 µM | 76.2 µM | 61.1 µM | 67.1 µM | 41.4 µM | 28.4 µM | 52.2 µM | > 100 µM | 70.2 µM |  |  |  |  |  |  |  |  | 
O=C1/C(=C/c2cccc(Oc3ccccc3)c2)N=C(c2ccccc2)N1c1nc2ccc(Sc3ccccc3)cc2[nH]1 | > 100 µM | > 100 µM | 50.4 µM | 38.4 µM | > 100 µM | 49.9 µM | > 100 µM | 70.5 µM | 55 µM | 35.8 µM |  |  |  |  |  |  |  |  | 
Cc1ccc(-c2cc(-c3ccc(Cl)cc3)nc(/N=C3\C(=O)N(CN4CCCCC4)c4ccc(Cl)cc43)n2)cc1 | 49.4 µM | > 100 µM | 62.4 µM | 39.3 µM | > 100 µM | > 100 µM | > 100 µM | 62.3 µM | > 100 µM | 46.2 µM |  |  |  |  |  |  |  |  | 
CN(C)CCCn1c2ccccc2c2cnccc21 | > 100 µM | > 100 µM | > 100 µM | > 100 µM | > 100 µM | > 100 µM | > 100 µM | 74.6 µM | > 100 µM | > 100 µM |  |  |  |  |  |  |  |  | 
